Laboratory results published in ChEMBL document CHEMBL2010722, “Structure-activity relationship study of beta-carboline derivatives as haspin kinase inhibitors” (Bioorg Med Chem Lett, 2012).

Legend:
[1] = tested on: ALK tyrosine kinase receptor (Homo sapiens), Q9UM73 [R1275Q]; experiment: Inhibition of ALK R1275Q mutant at 10 uM
[2] = target: Tyrosine-protein kinase Blk (Homo sapiens) (UniProt P51451); experiment: Inhibition of BLK at 10 uM
[3] = target: Megakaryocyte-associated tyrosine-protein kinase (Homo sapiens) (UniProt P42679); experiment: Inhibition of CTK at 10 uM
EML4-ALK (Homo sapiens) = EML4-ALK (Homo sapiens) (UniProt Q9UM73+Q9HC35); experiment: Inhibition of EML4-ALK at 10 uM; type: protein assay
[4] = target: Ephrin type-A receptor 8 (Homo sapiens) (UniProt P29322); experiment: Inhibition of EPHA8 at 10 uM
[5] = target: Vascular endothelial growth factor receptor 1 (Homo sapiens) (UniProt P17948); experiment: Inhibition of FLT1 at 10 uM
[6] = target: Vascular endothelial growth factor receptor 3 (Homo sapiens) (UniProt P35916); experiment: Inhibition of FLT4 at 10 uM
[7] = target: Insulin receptor (Homo sapiens) (UniProt P06213); experiment: Inhibition of INSR at 10 uM
[8] = target: Insulin receptor-related protein (Homo sapiens) (UniProt P14616); experiment: Inhibition of IRR at 10 uM
[9] = target: Vascular endothelial growth factor receptor 2 (Homo sapiens) (UniProt P35968); experiment: Inhibition of KDR at 10 uM
[10] = target: Tyrosine-protein kinase Mer (Homo sapiens) (UniProt Q12866); experiment: Inhibition of MER at 10 uM
[11] = target: Macrophage-stimulating protein receptor (Homo sapiens) (UniProt Q04912); experiment: Inhibition of RON at 10 uM
[12] = Inhibition of SRM at 10 uM
[13] = target: Angiopoietin-1 receptor (Homo sapiens) (UniProt Q02763); experiment: Inhibition of TIE2 at 10 uM
[14] = target: BDNF/NT-3 growth factors receptor (Homo sapiens) (UniProt Q16620); experiment: Inhibition of TRKB at 10 uM
[15] = target: Tyrosine-protein kinase Yes (Homo sapiens) (UniProt P07947); experiment: Inhibition of YES at 10 uM
[16] = target: Aurora kinase C (Homo sapiens) (UniProt Q9UQB9); experiment: Inhibition of AurC at 10 uM
[17] = target: Bone morphogenetic protein receptor type-1A (Homo sapiens) (UniProt P36894); experiment: Inhibition of BMPR1A at 10 uM
[18] = target: Serine/threonine-protein kinase B-raf (Homo sapiens) (UniProt P15056); experiment: Inhibition of BRAF at 10 uM
[19] = target: Calcium/calmodulin-dependent protein kinase type 1D (Homo sapiens) (UniProt Q8IU85); experiment: Inhibition of CaMK1d at 10 uM
[20] = target: CDK3/cyclin E (Homo sapiens) (UniProt P24864+O96020+Q00526); experiment: Inhibition of CDK3-Cyclin E1 at 10 uM; type: protein-complex assay
[21] = target: Dual specificity tyrosine-phosphorylation-regulated kinase 3 (Homo sapiens) (UniProt O43781); experiment: Inhibition of DYRK3 at 10 uM
[22] = target: Glycogen synthase kinase-3 beta (Homo sapiens) (UniProt P49841); experiment: Inhibition of GSK3b at 10 uM
[23] = target: Inhibitor of nuclear factor kappa-B kinase subunit beta (Homo sapiens) (UniProt O14920); experiment: Inhibition of IKKb at 10 uM
[24] = target: Dual specificity mitogen-activated protein kinase kinase 4 (Homo sapiens) (UniProt P45985); experiment: Inhibition of MAP2K4 at 10 uM
[25] = target: Mitogen-activated protein kinase kinase kinase 4 (Homo sapiens) (UniProt Q9Y6R4); experiment: Inhibition of MAP3K4 at 10 uM
[26] = target: Serine/threonine-protein kinase MRCK beta (Homo sapiens) (UniProt Q9Y5S2); experiment: Inhibition of MRCKb at 10 uM
[27] = target: Serine/threonine-protein kinase 24 (Homo sapiens) (UniProt Q9Y6E0); experiment: Inhibition of MST3 at 10 uM
[28] = target: Serine/threonine-protein kinase Nek6 (Homo sapiens) (UniProt Q9HC98); experiment: Inhibition of NEK6 at 10 uM
[29] = target: NUAK family SNF1-like kinase 1 (Homo sapiens) (UniProt O60285); experiment: Inhibition of NuaK1 at 10 uM
[30] = target: Mitogen-activated protein kinase 14 (Homo sapiens) (UniProt Q16539); experiment: Inhibition of p38alpha at 10 uM
[31] = target: Mitogen-activated protein kinase 12 (Homo sapiens) (UniProt P53778); experiment: Inhibition of p38gamma at 10 uM
[32] = Inhibition of p70S6K at 10 uM
[33] = target: [Pyruvate dehydrogenase (acetyl-transferring)] kinase isozyme 4, mitochondrial (Homo sapiens) (UniProt Q16654); experiment: Inhibition of PDHK4 at 10 uM
[34] = target: cGMP-dependent protein kinase 1 (Homo sapiens) (UniProt Q13976); experiment: Inhibition of PRKG1 at 10 uM
[35] = target: cAMP-dependent protein kinase catalytic subunit alpha (Homo sapiens) (UniProt P17612); experiment: Inhibition of PKACa at 10 uM
[36] = target: Protein kinase C alpha type (Homo sapiens) (UniProt P17252); experiment: Inhibition of PKCalpha at 10 uM
[37] = target: Serine/threonine-protein kinase D1 (Homo sapiens) (UniProt Q15139); experiment: Inhibition of PKD1 at 10 uM
[38] = target: Serine/threonine-protein kinase D3 (Homo sapiens) (UniProt O94806); experiment: Inhibition of PKD3 at 10 uM
[39] = target: cAMP-dependent protein kinase catalytic subunit PRKX (Homo sapiens) (UniProt P51817); experiment: Inhibition of PRKX at 10 uM
[40] = target: Serine/threonine-protein kinase Sgk2 (Homo sapiens) (UniProt Q9HBY8); experiment: Inhibition of SGK2 at 10 uM
[41] = target: STE20-like serine/threonine-protein kinase (Homo sapiens) (UniProt Q9H2G2); experiment: Inhibition of SLK at 10 uM
TAK1/TAB1 (Homo sapiens) = TAK1/TAB1 (Homo sapiens) (UniProt Q15750+O43318); experiment: Inhibition of TAK1-TAB1 at 10 uM; type: protein-complex assay
[42] = target: Serine/threonine-protein kinase TBK1 (Homo sapiens) (UniProt Q9UHD2); experiment: Inhibition of TBK1 at 10 uM
[43] = target: Testis-specific serine/threonine-protein kinase 1 (Homo sapiens) (UniProt Q9BXA7); experiment: Inhibition of TSSK1 at 10 uM
[44] = target: Testis-specific serine/threonine-protein kinase 2 (Homo sapiens) (UniProt Q96PF2); experiment: Inhibition of TSSK2 at 10 uM
[45] = target: Wee1-like protein kinase (Homo sapiens) (UniProt P30291); experiment: Inhibition of WEE1 at 10 uM
[46] = target: Dual specificity protein kinase CLK1 (Homo sapiens) (UniProt P49759); settings: 10 uM

Sequence of Megakaryocyte-associated tyrosine-protein kinase (Homo sapiens) (P42679 whole entry): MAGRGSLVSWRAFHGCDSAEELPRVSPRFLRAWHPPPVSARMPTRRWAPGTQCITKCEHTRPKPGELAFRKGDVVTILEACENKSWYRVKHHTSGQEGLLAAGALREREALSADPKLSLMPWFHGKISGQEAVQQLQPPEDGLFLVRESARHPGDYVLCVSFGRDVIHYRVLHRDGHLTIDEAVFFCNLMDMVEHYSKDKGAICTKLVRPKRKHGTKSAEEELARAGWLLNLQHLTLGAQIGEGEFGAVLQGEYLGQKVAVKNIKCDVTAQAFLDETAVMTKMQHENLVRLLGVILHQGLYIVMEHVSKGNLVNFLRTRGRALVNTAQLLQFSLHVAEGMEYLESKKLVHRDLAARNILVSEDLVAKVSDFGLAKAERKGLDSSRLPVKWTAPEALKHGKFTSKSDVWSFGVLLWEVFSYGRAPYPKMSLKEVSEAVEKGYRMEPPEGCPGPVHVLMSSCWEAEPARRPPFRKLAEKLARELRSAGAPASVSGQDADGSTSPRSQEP
Sequence of Serine/threonine-protein kinase D1 (Homo sapiens) (Q15139 whole entry): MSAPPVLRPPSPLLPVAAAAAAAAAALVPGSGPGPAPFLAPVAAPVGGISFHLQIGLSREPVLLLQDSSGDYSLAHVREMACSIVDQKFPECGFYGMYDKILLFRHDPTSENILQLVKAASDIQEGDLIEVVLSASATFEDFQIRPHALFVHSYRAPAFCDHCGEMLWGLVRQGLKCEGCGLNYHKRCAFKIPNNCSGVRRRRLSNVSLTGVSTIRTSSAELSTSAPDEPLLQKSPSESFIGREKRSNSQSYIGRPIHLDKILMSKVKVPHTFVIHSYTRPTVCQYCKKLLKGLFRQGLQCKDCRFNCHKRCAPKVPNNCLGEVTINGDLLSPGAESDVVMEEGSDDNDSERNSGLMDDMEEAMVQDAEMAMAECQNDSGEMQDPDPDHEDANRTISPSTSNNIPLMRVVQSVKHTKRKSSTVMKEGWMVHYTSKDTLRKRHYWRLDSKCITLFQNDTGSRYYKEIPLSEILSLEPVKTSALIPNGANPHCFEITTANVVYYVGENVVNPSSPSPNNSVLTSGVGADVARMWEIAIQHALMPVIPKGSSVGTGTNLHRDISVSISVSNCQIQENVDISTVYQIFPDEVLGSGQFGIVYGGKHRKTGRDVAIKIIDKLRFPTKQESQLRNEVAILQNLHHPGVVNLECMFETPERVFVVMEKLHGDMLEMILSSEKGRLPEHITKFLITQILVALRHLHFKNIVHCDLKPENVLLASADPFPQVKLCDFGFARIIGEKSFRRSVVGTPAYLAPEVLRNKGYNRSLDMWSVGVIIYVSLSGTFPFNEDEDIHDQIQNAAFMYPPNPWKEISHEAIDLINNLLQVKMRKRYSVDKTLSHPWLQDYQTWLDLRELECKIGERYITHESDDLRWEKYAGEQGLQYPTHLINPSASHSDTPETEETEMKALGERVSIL
Sequence of Vascular endothelial growth factor receptor 2 (Homo sapiens) (P35968 whole entry): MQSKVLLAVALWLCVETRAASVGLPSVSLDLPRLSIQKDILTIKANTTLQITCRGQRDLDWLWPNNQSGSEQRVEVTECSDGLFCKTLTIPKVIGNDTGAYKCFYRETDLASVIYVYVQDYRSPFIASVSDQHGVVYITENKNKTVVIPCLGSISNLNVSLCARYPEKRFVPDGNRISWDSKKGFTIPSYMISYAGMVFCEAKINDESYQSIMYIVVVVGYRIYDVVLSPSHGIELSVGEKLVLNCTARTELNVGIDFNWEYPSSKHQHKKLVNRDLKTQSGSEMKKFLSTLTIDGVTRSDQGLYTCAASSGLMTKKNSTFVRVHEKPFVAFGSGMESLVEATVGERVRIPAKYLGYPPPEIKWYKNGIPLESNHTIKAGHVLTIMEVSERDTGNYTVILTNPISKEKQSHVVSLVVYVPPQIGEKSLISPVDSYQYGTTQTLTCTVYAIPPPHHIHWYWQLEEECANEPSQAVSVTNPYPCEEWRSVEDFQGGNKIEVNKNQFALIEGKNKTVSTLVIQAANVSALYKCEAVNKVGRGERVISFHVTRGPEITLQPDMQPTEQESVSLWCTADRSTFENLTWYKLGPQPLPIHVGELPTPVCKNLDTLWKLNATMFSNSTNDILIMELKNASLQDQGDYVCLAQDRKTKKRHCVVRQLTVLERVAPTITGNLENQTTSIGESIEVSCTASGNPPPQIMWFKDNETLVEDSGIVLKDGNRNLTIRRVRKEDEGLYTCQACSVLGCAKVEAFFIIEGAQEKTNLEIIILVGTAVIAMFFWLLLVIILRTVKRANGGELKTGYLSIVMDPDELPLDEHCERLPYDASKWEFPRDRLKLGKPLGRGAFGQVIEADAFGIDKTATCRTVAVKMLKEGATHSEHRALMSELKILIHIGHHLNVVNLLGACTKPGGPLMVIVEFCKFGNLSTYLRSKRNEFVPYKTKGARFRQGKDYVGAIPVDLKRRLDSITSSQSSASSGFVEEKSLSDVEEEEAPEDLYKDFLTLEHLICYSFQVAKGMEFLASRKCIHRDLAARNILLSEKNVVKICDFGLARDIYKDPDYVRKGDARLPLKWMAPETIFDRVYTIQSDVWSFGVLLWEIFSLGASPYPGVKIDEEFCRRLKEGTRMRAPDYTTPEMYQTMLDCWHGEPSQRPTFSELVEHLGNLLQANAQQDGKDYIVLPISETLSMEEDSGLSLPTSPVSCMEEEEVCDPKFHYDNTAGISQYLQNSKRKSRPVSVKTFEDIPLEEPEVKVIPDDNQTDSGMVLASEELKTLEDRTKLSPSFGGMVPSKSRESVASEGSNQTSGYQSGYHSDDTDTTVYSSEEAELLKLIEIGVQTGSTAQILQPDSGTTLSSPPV
Sequence of NUAK family SNF1-like kinase 1 (Homo sapiens) (O60285 whole entry): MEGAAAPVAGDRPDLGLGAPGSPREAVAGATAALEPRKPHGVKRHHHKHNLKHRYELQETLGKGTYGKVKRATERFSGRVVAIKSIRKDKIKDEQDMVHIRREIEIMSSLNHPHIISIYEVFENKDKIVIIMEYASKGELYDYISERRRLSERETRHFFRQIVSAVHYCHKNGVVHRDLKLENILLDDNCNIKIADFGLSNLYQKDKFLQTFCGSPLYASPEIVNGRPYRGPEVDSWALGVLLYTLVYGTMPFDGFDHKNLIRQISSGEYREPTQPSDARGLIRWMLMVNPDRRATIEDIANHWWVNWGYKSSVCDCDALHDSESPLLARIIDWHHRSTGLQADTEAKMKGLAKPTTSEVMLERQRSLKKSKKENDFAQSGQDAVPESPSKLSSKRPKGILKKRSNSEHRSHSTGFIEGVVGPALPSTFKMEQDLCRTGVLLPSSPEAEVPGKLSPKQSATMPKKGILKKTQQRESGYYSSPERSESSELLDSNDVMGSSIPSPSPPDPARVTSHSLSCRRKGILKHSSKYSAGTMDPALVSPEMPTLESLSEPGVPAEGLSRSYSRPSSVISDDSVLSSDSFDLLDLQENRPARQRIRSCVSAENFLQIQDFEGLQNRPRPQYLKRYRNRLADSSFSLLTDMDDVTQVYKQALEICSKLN
Sequence of CDK3/cyclin E (Homo sapiens) (O96020 whole entry, looked up): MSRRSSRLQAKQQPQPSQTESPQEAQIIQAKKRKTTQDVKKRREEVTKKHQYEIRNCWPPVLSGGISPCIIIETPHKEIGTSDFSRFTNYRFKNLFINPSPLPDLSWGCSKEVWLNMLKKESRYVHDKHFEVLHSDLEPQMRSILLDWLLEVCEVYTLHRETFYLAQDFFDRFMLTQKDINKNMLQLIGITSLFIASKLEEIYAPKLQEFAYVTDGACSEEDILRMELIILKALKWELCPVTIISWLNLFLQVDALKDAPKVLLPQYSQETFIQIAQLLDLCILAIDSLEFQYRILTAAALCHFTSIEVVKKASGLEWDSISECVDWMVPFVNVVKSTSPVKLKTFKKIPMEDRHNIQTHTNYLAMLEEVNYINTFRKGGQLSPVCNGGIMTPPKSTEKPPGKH
Sequence of CDK3/cyclin E (Homo sapiens) (P24864 whole entry, looked up): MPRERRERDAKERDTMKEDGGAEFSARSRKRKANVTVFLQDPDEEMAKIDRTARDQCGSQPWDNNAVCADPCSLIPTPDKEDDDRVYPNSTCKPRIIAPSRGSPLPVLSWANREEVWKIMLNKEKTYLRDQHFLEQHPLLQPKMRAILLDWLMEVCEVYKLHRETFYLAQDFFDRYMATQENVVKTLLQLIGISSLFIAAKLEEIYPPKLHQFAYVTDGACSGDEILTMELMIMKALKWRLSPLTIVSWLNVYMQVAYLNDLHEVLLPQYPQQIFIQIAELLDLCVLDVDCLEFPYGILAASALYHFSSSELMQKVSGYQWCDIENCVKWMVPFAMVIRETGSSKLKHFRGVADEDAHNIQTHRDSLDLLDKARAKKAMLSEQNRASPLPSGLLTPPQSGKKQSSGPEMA
Sequence of CDK3/cyclin E (Homo sapiens) (Q00526 whole entry, looked up): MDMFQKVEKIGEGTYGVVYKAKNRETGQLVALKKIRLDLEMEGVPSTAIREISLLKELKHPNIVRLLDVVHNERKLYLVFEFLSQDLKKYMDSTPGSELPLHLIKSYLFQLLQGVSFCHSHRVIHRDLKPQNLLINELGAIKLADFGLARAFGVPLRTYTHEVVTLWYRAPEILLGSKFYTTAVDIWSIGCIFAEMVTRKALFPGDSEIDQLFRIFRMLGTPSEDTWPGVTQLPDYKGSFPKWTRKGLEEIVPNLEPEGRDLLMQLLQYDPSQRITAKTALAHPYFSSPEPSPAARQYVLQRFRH
Sequence of Testis-specific serine/threonine-protein kinase 1 (Homo sapiens) (Q9BXA7 whole entry): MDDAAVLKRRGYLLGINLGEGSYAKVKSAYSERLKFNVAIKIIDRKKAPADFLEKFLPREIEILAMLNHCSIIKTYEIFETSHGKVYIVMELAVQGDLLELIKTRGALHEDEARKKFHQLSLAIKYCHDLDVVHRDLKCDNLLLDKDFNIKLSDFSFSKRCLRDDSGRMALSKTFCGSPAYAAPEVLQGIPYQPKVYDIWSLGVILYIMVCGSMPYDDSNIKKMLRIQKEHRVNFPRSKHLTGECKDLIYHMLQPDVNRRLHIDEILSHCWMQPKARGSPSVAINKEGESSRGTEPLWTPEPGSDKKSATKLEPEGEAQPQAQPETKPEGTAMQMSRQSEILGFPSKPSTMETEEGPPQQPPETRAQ

Work on `COc1ccc2c3ccnc(C(F)(F)F)c3n(CCCCN)c2c1` yielded an inhibition [1] of 6%, an inhibition [2] of 4% and an inhibition [3] of 25%. It also gave an inhibition (EML4-ALK (Homo sapiens)) of 12%, an inhibition [4] of 0% and an inhibition [5] of 8%. The inhibition [6] was 9%, the inhibition [7] was 0% and the inhibition [8] was 0%. The inhibition [9] was 2%, the inhibition [10] was 35% and the inhibition [11] was 0%. It also gave an inhibition [12] of 0%, an inhibition [13] of 0% and an inhibition [14] of 7%. For the same compound, the inhibition [15] was 6%, the inhibition [16] was 1% and the inhibition [17] was 35%. The inhibition [18] was 0%, the inhibition [19] was 4% and the inhibition [20] was 22%. The inhibition [21] was 97%, the inhibition [22] was 27% and the inhibition [23] was 30%. It also gave an inhibition [24] of 10%, an inhibition [25] of 8% and an inhibition [26] of 27%. The inhibition [27] was 9%, the inhibition [28] was 5% and the inhibition [29] was 30%. It also gave an inhibition [30] of 1%, an inhibition [31] of 66% and an inhibition [32] of 76%. It also gave an inhibition [33] of 34%, an inhibition [34] of 80% and an inhibition [35] of 28%. It also gave an inhibition [36] of 26%, an inhibition [37] of 85% and an inhibition [38] of 92%. The inhibition [39] was 14%, the inhibition [40] was 20% and the inhibition [41] was 20%. The inhibition (TAK1/TAB1 (Homo sapiens)) was 12%, the inhibition [42] was 4% and the inhibition [43] was 43%. The inhibition [44] was 5%, the inhibition [45] was 0% and the inhibition [46] was 100%.
